{"source": "patent US20250144131A1", "about": "“POLYSACCHARIDE COMPOUND WITH A DEFINED MOLECULAR STRUCTURE FOR THE TREATMENT OF PULMONARY FIBROSIS” (SHENZHEN YANDAI INVESTMENT CO., LTD, priority 2023, published 2025)", "key": {"[1]": {"experiment": "Mortality and body weight of orthotopic H22-bearing mice", "settings": "Kanglaite soft capsule 1404 mg/kg", "source_text": "Liver cancer (H22) cells, labeled with Luc fluorescent marker at a concentration of 1×10^7 cells/mL, were initially inoculated into the peritoneal cavity of 8 male C57 mice. After the development of ascites, the ascitic fluid was aseptically extracted, washed with HBSS buffer, centrifuged to discard the supernatant, and stained with Trypan Blue, and cells in the ascitic fluid were counted under a microscope. The cell concentration was adjusted to […] with HBSS buffer and inoculated into the right hepatic region of 51 male C57 mice, at a volume of 10 μL per mouse, to prepare the orthotopic tumor-bearing mice. One week later, the liver tumor formation in mice was detected using a small animal in vivo imaging system. Based on tumor size, the mice were randomized into groups: model control group, cisplatin group (4 mg/kg), Kanglaite soft capsule group (1,404 mg/kg), cisplatin+Kanglaite soft capsule group (4+1,404 mg/kg), cisplatin+GLP-4 low-dose group (4+130 mg/kg), and cisplatin+GLP-4 high-dose group (4+1,170 mg/kg), with 6 mice per group. An additional 6 mice served as the normal control group. The normal control group and the model control group were administered pure water by oral gavage. The chemotherapy group received intraperitoneal injections of cisplatin, and the other groups were administered their respective drug solutions by oral gavage (20 mL/kg) or intraperitoneal injection (10 mL/kg), once daily for 14 consecutive days. After the last dose, blood was collected from the orbital plexus to test blood WBC, RBC, liver and kidney function indicators (ALT, AST, BUN, CRE), and CD3^+/CD4^+, CD3^+/CD8^+ ratios. The spleen, thymus, and tumors were weighed to calculate organ coefficients.\nAnimal survival and general condition: Weight was recorded weekly, along with any deaths among the animals."}, "4T1 breast cancer cells": {"system": "4T1 breast cancer cells", "experiment": "Antitumor effect in 4T1 breast tumor-bearing mice (tumor volume, relative tumor growth inhibition rate, tumor index, tumor growth inhibition rate)", "format": "in vivo, BALB/c mice", "experimental": "Longest and shortest diameters of tumors were measured every three days to calculate tumor volume, and mouse weights were recorded every three days. At the end of the experiment, tumors, spleens, and thymuses were harvested and weighed to calculate tumor, spleen, and thymus indices. […] Where TRTV is the relative tumor volume in the experimental group, and CRTV is the relative tumor volume in the model control group. Relative tumor volume (RTV)=Vt/V0, where Vt is the tumor volume on day t of dosing, and V0 is the tumor volume at the time of grouping. Evaluation criteria: […] Where T represents the average tumor weight in the treatment group, and C represents the average tumor weight in the model control group. Evaluation criteria: […]"}, "[2]": {"design": "species or system C57 mice", "settings": "mouse, in vivo, 130 mg/kg", "experimental": "Spleen and thymus organ coefficients: After the last dose, spleen, thymus, and tumor weights are measured, and organ coefficients are calculated. organ coefficient (%)=organ weight/fasting body weight×100%."}, "[3]": {"experiment": "Hematological and liver/kidney function tests (WBC, RBC, ALT, AST, BUN, CRE) in LLC-bearing mice", "experimental": "(§1) LLC cells in logarithmic growth phase at 1×10^7/mL were inoculated at 0.2 mL into the right axilla of 10 purchased normal male C57 mice. Tumor growth was monitored, and tumor-bearing mice were prepared. Once the tumor volume in tumor-bearing mice exceeded 200 mm^3, the tumor tissue was aseptically harvested to prepare a tissue cell suspension. This was mixed at a 1:1 (V:V) ratio with culture medium to create a tumor tissue homogenate. This homogenate was injected into the right axilla of 60 male C57 mice at 0.2 mL per mouse. When the tumor volume in these tumor-bearing mice exceeded 100 mm^3, mice with well-grown tumors without ulceration were selected and randomized into groups based on tumor volume as follows: model control group, cisplatin group (4 mg/kg), Kanglaite soft capsule group (1,404 mg/kg), cisplatin+Kanglaite soft capsule group (4+1,404 mg/kg), cisplatin+GLP-4 low-dose group (4+130 mg/kg), and cisplatin+GLP-4 high-dose group (4+1,170 mg/kg), with 8 mice per group. Additionally, 8 mice were selected as a normal control group. The cisplatin group received intraperitoneal injections of cisplatin, and the other groups were administered their respective drug solutions by gavage (20 mL/kg) or intraperitoneal injection (10 mL/kg), once daily for 27 consecutive days. After the last dose, blood was collected from the orbital plexus to test blood WBC, RBC, liver and kidney function indicators (ALT, AST, BUN, CRE), and CD3^+, CD4^+, and CD8^+ levels. Bone marrow smears were examined, and spleens, thymuses, and tumors were weighed. Histopathological examinations were conducted on the tumor, spleen, stomach, and kidneys.\nHematological tests: Blood samples for routine blood tests (WBC and RBC) and liver and kidney function tests (BUN and CRE) were collected from the orbital plexus after the last dose."}, "bone marrow cells": {"system": "bone marrow cells", "design": "species or system C57 mice", "settings": "mouse, in vivo, 130 mg/kg", "experimental": "as §1"}}, "note": "Marks after values point to notes of the source that are not given here."}
{"smiles": "N.N.[Cl][Pt][Cl]", "note": "[Cisplatin, cisplatin]", "values": [{"measurement": "Number of deaths", "setting": "[1]; 6 per group, cisplatin 4 mg/kg", "result": 3}, {"measurement": "Number of surviving animals", "setting": "[1]; 6 per group, cisplatin 4 mg/kg", "result": 3}, {"measurement": "Weight", "setting": "[1]; W0, cisplatin 4 mg/kg", "result": "18.5 ± 1.3", "unit": "g"}, {"measurement": "Weight", "setting": "[1]; W1, cisplatin 4 mg/kg", "result": "16.9 ± 1.8 ^ g"}, {"measurement": "Weight", "setting": "[1]; W2, cisplatin 4 mg/kg", "result": "15.1 ± 1.6", "unit": "g"}, {"measurement": "Mortality rate", "setting": "[1]; cisplatin 4 mg/kg", "result": 50.0, "unit": "%"}, {"measurement": "Tumor volume", "setting": "4T1 breast cancer cells; D0, cisplatin 4 mg/kg", "result": "225.3 ± 65.4", "unit": "mm^3"}, {"measurement": "Relative tumor growth inhibition rate (compared to model control group)", "setting": "4T1 breast cancer cells; D3, cisplatin 4 mg/kg", "result": 17.2, "unit": "%"}, {"measurement": "Relative tumor growth inhibition rate (compared to model control group)", "setting": "4T1 breast cancer cells; D6, cisplatin 4 mg/kg", "result": "43.5* %"}, {"measurement": "Relative tumor growth inhibition rate compared to the model control group", "setting": "4T1 breast cancer cells; D6 to D25, cisplatin 4, GLP-4 low-dose 130 mg/kg", "result": "over 40%"}, {"measurement": "Relative tumor growth inhibition rate (compared to model control group)", "setting": "4T1 breast cancer cells; D9, cisplatin 4 mg/kg", "result": "49.1* %"}, {"measurement": "Relative tumor growth inhibition rate (compared to model control group)", "setting": "4T1 breast cancer cells; D12, cisplatin 4 mg/kg", "result": "55.7* %"}, {"measurement": "Relative tumor growth inhibition rate (compared to model control group)", "setting": "4T1 breast cancer cells; D15, cisplatin 4 mg/kg", "result": "56.9* %"}, {"measurement": "Relative tumor growth inhibition rate (compared to model control group)", "setting": "4T1 breast cancer cells; D19, cisplatin 4 mg/kg", "result": "48.8* %"}, {"measurement": "Relative tumor growth inhibition rate (compared to model control group)", "setting": "4T1 breast cancer cells; D22, cisplatin 4 mg/kg", "result": "44.1* %"}, {"measurement": "Relative tumor growth inhibition rate (compared to model control group)", "setting": "4T1 breast cancer cells; D25, cisplatin 4 mg/kg", "result": "42.1* %"}, {"measurement": "Tumor volume", "setting": "4T1 breast cancer cells; D25, cisplatin 4 mg/kg", "result": "2026.4 ± 707^ mm^3"}, {"measurement": "Tumor growth inhibition rate (%) vs. the model control group", "setting": "4T1 breast cancer cells; cisplatin 4 mg/kg", "result": 29.6, "unit": "%"}, {"measurement": "Tumor index", "setting": "4T1 breast cancer cells; cisplatin 4 mg/kg", "result": "11.5 ± 3.3", "unit": "%"}, {"measurement": "Peak relative tumor growth inhibition rate compared to the model control group", "setting": "4T1 breast cancer cells; cisplatin 4, GLP-4 low-dose 130 mg/kg", "result": 56.9, "unit": "%"}, {"measurement": "Tumor growth inhibition rate compared to the model control group", "setting": "4T1 breast cancer cells; tumor weight, cisplatin 4, GLP-4 low-dose 130 mg/kg", "result": 29.6, "unit": "%"}, {"measurement": "Spleen coefficient", "setting": "[2]", "result": "0.456 ± 0.102 ^ %"}, {"measurement": "Thymus coefficient", "setting": "[2]", "result": "0.044 ± 0.020", "unit": "%"}, {"measurement": "ALT", "setting": "[3]; LLC-bearing mice, blood after last dose, cisplatin 4, Kanglaite 1404, GLP-4 low-dose 130 mg/kg", "result": 58.25, "unit": "U/L"}, {"measurement": "AST", "setting": "[3]; mouse, in vivo, 130 mg/kg", "result": 393.25, "unit": "U/L"}, {"measurement": "BUN", "setting": "[3]; mouse, in vivo, 130 mg/kg", "result": 7.91, "unit": "mmol/L"}, {"measurement": "CRE", "setting": "[3]; mouse, in vivo, 130 mg/kg", "result": 20.45, "unit": "µmol/L"}, {"measurement": "RBC", "setting": "[3]; mouse, in vivo, 130 mg/kg", "result": "6.01 ± 10^12/L"}, {"measurement": "WBC", "setting": "[3]; mouse, in vivo, 130 mg/kg", "result": "11.09 ± 10^9/L"}, {"measurement": "Lymphatic system", "setting": "bone marrow cells", "result": "15.75 ± 3.44"}, {"measurement": "Mononuclear cell system", "setting": "bone marrow cells", "result": "2.88 ± 0.55"}, {"measurement": "Myeloid/erythroid ratio", "setting": "bone marrow cells", "result": "3.68 ± 1.68"}, {"measurement": "Other cells", "setting": "bone marrow cells", "result": "2.50 ± 2.01"}, {"measurement": "Red cell system", "setting": "bone marrow cells", "result": "22.75 ± 5.67"}]}
